Laboratory results taken from US10478425B2, “5-phenylazaindole derivative having AMPK-activating activity” (Shionogi & Co., Ltd., priority 2016, dated 2019).

Legend:
Human AMPK α2β2γ1 = molecular target: T1, Human AMPK α2β2γ1 (Homo sapiens, UniProt O43741+P54646); experiment: Test Example 2: activation of phosphorylated human AMPK α2β2γ1 (mobility-shift kinase assay, FL-Peptide 7); assay type: biochemical; settings: for EC150: compound concentration showing 150% relative to the control (100%), human AMPK α2β2γ1 phosphorylated with CaMKK2; for Emax: maximum rate of increase in activity within the measurement range, control = 100%, read-out: Emax
T1 construct: The full length cDNAs of human AMPK β2 (NM_005399.3) and human AMPK α2 (NM_006252.3); The full length cDNAs of human AMPK β2 (NM_005399.3); the full length cDNA of human AMPK γ1 (NM_002733.3) had been inserted into pET28b(+); 6×His (N); made in house; host or cells: Escherichia coli BL21 CodonPlus (DE3)-RIL
How it was run: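 His-tagged α2β2γ1 expressed in E. coli was pre-phosphorylated by GST-CaMKKβ (25 °C, 1–1.5 h), then exposed to compound for 10 min (1% DMSO). Reaction: pH 7.0 HEPES, ATP and 1.5 μM FL-Peptide 7 (final), 2 h at 25 °C. Mobility-shift conversion gave % activity increase versus compound-free control.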

[1] = tested on: phosphorylation of endogenous acetyl-CoA carboxylase (ACC) in L6-GLUT4myc myoblasts; experiment: Test Example 3: cell-based ELISA of ACC (Ser79) phosphorylation for AMPK activation in L6-GLUT4myc myoblasts; settings: for EC (150% of control): concentration causing 150% relative to vehicle control (100%), 3 hours, phospho-ACC; for Emax: maximum response within varying concentrations, vehicle control = 100%
Method: Cell-based assay for AMPK activation potency of compounds was performed with L6-GLUT4myc myoblasts (J. Biol. Chem. 278:17953-62, 2003) in a 96-well or 384-well plate by detecting the phosphorylation of endogenous acetyl-CoA carboxylase (ACC) using cell-based ELISA method. The cells were seeded in a 96-well plate at a density of 2×10^4 cells per well or in a 384-well plate at a density of 3.5×10^3 cells per well in minimum essential media (α-MEM) supplemented with 10% fetal bovine serum, 100 U/mL penicillin, 100 μg/mL streptomycin, 2 μg/mL blasticidin S hydrochloride and 0.5 mg/mL G418 disulfate, and maintained in a humidified atmosphere of 95% air and 5% CO2 at 37° C. for 24 hours. Following the overnight culture with an assay buffer consisting of 0.1% bovine serum albumin (BSA), 100 U/mL penicillin and 100 μg/mL streptomycin, cells were treated with varying concentrations of compounds or vehicle (dimethyl sulfoxide at a final concentration of 0.33%) in the presence of 0.1% BSA or 4% BSA for 3 hours at room temperature. After fixing cells with ice-cold 4% formaldehyde in Tris-buffered saline (TBS) for 30 min, the fixed cells were rinsed with TBS containing 0.1% or 0.01% Triton X-100 (TBS-T) and quenched with 0.6% hydrogen peroxide in TBS-T, and blocked with a blocking reagent (Blocking One P manufactured by Nacalai Tesque). Then, anti-phospho-ACC (Ser79) antibody as the primary antibody (manufactured by Cell Signaling Technology) diluted with TBS-T containing 5% Blocking One P was added to each well and the plate was incubated overnight at 4° C. After rinsing each well with TBS-T, horseradish peroxidase (HRP)-conjugated anti-rabbit IgG as the secondary antibody diluted with TBS-T containing 5% Blocking One P was added to each well and the plate was incubated for 1 hour in 96-well plate or for 5 hours in 384-well plate at room temperature. Each well of the plate was rinsed with TBS-T and added a chemiluminescent reagent (ImmunoStar® LD manufactured by Wako Pure Chemical Industries) for detection of HRP conjugates. Ten minutes later, the luminescence intensity was measured using luminometer (ViewLux or ARVO manufactured by PerkinElmer). The luminescence in the presence of compound was calculated as the rate of change relative to vehicle control, which is in the absence of compound.

T1 sequence (P54646 whole entry): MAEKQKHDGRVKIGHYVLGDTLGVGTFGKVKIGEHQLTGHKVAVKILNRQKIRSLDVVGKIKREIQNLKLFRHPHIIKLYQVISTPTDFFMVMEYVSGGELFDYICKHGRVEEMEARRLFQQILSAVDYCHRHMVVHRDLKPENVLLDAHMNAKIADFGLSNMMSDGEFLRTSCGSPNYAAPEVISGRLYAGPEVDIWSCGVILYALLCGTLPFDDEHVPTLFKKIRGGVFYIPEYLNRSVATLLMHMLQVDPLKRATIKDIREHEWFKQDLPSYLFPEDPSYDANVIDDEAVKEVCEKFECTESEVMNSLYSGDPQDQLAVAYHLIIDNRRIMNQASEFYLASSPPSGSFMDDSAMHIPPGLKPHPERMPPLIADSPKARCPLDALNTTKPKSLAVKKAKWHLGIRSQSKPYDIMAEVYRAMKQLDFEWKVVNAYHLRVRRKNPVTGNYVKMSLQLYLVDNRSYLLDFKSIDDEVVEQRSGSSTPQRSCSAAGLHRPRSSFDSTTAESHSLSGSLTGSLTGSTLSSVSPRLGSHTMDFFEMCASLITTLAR
T1 sequence (O43741 whole entry): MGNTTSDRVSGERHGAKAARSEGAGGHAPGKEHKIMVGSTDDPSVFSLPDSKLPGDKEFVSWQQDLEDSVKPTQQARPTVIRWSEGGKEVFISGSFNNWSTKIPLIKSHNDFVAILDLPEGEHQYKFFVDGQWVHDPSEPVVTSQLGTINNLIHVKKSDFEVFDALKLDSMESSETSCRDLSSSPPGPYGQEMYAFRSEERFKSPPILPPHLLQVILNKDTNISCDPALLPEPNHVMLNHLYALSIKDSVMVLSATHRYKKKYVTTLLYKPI
T1 sequence (P54619 whole entry partner): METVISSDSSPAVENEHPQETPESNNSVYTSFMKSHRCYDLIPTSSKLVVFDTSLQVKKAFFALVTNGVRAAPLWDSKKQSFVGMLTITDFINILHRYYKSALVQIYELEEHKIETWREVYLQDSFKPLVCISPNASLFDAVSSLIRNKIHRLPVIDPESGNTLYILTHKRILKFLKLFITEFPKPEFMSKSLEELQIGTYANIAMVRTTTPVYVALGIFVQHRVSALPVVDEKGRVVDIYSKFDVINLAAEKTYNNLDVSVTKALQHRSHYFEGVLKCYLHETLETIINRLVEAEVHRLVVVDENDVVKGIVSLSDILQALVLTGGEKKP

Row | SMILES | EC150 (Human AMPK α2β2γ1) [nM] | Emax (Human AMPK α2β2γ1) [%] | EC (150% of control) [1] [µM] | Emax [1] [%]
1 | O[C@@H]1CO[C@H]2[C@@H]1OC[C@H]2Oc1cc2nc(-c3ccc(-c4ccc(OC5CCNC5)cc4)cc3)c(F)cc2[nH]1 (stereo partly shown) [Compound I-1-60] | < 0.051 | 486 | 0.019 | 495
2 | CS(C)(=O)=Nc1ccc(-c2ccc(-c3nc4cc(O[C@@H]5CO[C@H](CO)C5)[nH]c4cc3Cl)cc2)cc1 [Compound I-1-02] | 2.2 | 510 | 0.0113 | 968
3 | COCC(=O)Nc1ccc(-c2ccc(-c3nc4cc(O[C@@H]5CO[C@H]6[C@@H]5OC[C@H]6O)[nH]c4cc3F)cc2)cc1 [Compound I-2-10] | 2.9 | 636 | – | –
4 | CCO[C@H]1[C@@H](CO)OC[C@H]1Oc1cc2nc(-c3ccc(-c4ccc(N=S(C)(C)=O)cc4)cc3)c(F)cc2[nH]1 [Compound I-2-55] | 19 | 507 | – | –
5 | O[C@@H]1CO[C@H]2[C@@H]1OC[C@H]2Oc1cc2nc(-c3ccc(-c4ccc(OCCC(F)F)cc4)cc3)c(F)cc2[nH]1 [Compound I-2-63] | 21 | 520 | – | –
6 | CNC(=O)c1ccc(-c2ccc(-c3nc4cc(O[C@@H]5CO[C@H]6[C@@H]5OC[C@H]6O)[nH]c4cc3F)cc2)cc1F [Compound I-1-54] | 3.3 | 416 | – | –
7 | CN(C)S(=O)(=O)c1ccc(-c2ccc(-c3nc4cc(O[C@@H]5CO[C@H]6[C@@H]5OC[C@H]6O)[nH]c4cc3F)cc2)nc1 [Compound I-1-33] | 6.5 | 464 | – | –
8 | CN(C)C(=O)OC1CCN(c2ccc(-c3nc4cc(O[C@@H]5CO[C@H]6[C@@H]5OC[C@H]6O)[nH]c4cc3F)cc2)CC1 [Compound I-1-50] | 23 | 539 | – | –
9 | CCOCCOc1ccc(-c2ccc(-c3nc4cc(O[C@@H]5CO[C@H]6[C@@H]5OC[C@H]6O)[nH]c4cc3F)cc2)cc1 [Compound I-2-61] | 5.1 | 562 | – | –
10 | O=C(c1ccc(-c2ccc(-c3nc4cc(O[C@@H]5CO[C@H](CO)C5)[nH]c4cc3F)cc2)cc1)N1CCOCC1 [Compound I-2-81] | 0.78 | 591 | – | –
11 | CN1CCC(Oc2ccc(-c3ccc(-c4nc5cc(O[C@@H]6CO[C@H]7[C@@H]6OC[C@H]7O)[nH]c5cc4F)cc3)cc2)C1 (stereo partly shown) [Compound I-1-26] | 1.5 | 353 | – | –
12 | COC(=O)N[C@H]1CC[C@H](c2ccc(-c3nc4cc(O[C@@H]5CO[C@H]6[C@@H]5OC[C@H]6O)[nH]c4cc3F)cc2)CC1 [Compound I-1-39] | 13 | 552 | – | –
13 | O[C@@H]1CO[C@H]2[C@@H]1OC[C@H]2Oc1cc2nc(-c3ccc(-c4ccc(O[C@H]5CCOC5)cc4)cc3)c(F)cc2[nH]1 [Compound I-2-85] | 1.5 | 500 | – | –
14 | CC(C)(O)/C=C/c1ccc(-c2ccc(-c3nc4cc(O[C@@H]5CO[C@H]6[C@@H]5OC[C@H]6O)[nH]c4cc3F)cc2)cc1 [Compound I-2-15] | 11 | 505 | – | –
15 | CS(=O)(=O)c1ccc(-c2ccc(-c3nc4cc(O[C@@H]5CO[C@H](CO)C5)[nH]c4cc3F)cc2)nc1 [Compound I-2-94] | 0.99 | 652 | – | –
16 | CC(=O)N[C@H]1CC[C@H](c2ccc(-c3nc4cc(O[C@@H]5CO[C@H]6[C@@H]5OC[C@H]6O)[nH]c4cc3F)cc2)CC1 [Compound I-1-41] | 7.8 | 562 | – | –
17 | COC(=O)N1CC=C(c2ccc(-c3nc4cc(O[C@@H]5CO[C@H]6[C@@H]5OC[C@H]6O)[nH]c4cc3F)cc2)CC1 [Compound I-1-43] | 7 | 514 | – | –
18 | CC(=O)N(C)c1ccc(-c2ccc(-c3nc4cc(O[C@@H]5CO[C@H]6[C@@H]5OC[C@H]6O)[nH]c4cc3F)cc2)cc1 [Compound I-1-36] | 1.7 | 437 | – | –

Row | SMILES | EC150 (Human AMPK α2β2γ1) [nM] | Emax (Human AMPK α2β2γ1) [%] | EC (150% of control) [1] [µM] | Emax [1] [%]
19 | O[C@@H]1CO[C@H]2[C@@H]1OC[C@H]2Oc1cc2nc(-c3ccc(-c4ccc(OC5CCNCC5)cc4)cc3)c(F)cc2[nH]1 [Compound I-2-60] | 2 | 564 | – | –
20 | COCCN(C)c1ccc(-c2ccc(-c3nc4cc(O[C@@H]5CO[C@H]6[C@@H]5OC[C@H]6O)[nH]c4cc3F)cc2)cc1 [Compound I-2-12] | 6.9 | 367 | – | –
21 | COCC(=O)Nc1ccc(-c2ccc(-c3nc4cc(O[C@@H]5CO[C@H](CO)C5)[nH]c4cc3F)cc2)cc1 [Compound I-2-74] | 1.2 | 656 | – | –
22 | O[C@@H]1CO[C@H]2[C@@H]1OC[C@H]2Oc1cc2nc(-c3ccc(-c4ccc(OC5CNCC5F)cc4)cc3)c(F)cc2[nH]1 (stereo partly shown) [Compound I-1-71] | 4.33 | 340 | – | –
23 | CCC(=O)NC1CC(c2ccc(-c3nc4cc(O[C@@H]5CO[C@H]6[C@@H]5OC[C@H]6O)[nH]c4cc3F)cc2)C1 (stereo partly shown) [Compound I-1-40] | 29 | 541 | – | –
24 | COc1cc(-c2ccc(N=S3(=O)CCCC3)cc2)ccc1-c1nc2cc(O[C@@H]3CO[C@H]4[C@@H]3OC[C@H]4O)[nH]c2cc1F [Compound I-1-20] | 8.3 | 457 | – | –
25 | CN1CCN(c2ccc(-c3ccc(-c4nc5cc(O[C@@H]6CO[C@H]7[C@@H]6OC[C@H]7O)[nH]c5cc4F)cc3)cc2)C1=O [Compound I-2-53] | 4.2 | 638 | – | –
26 | O=C(c1ccc(-c2ccc(-c3nc4cc(O[C@@H]5CO[C@H](CO)C5(F)F)[nH]c4cc3F)cc2)cc1)N1CCOCC1 [Compound I-2-97] | 4.6 | 527 | – | –
27 | C[S+]([O-])c1ccc(-c2ccc(-c3nc4cc(O[C@@H]5CO[C@H](CO)C5)[nH]c4cc3F)cc2)cc1 (single isomer, unassigned) [Compound I-2-06] | 0.46 | 621 | – | –
28 | O=C1OCCN1c1ccc(-c2ccc(-c3nc4cc(O[C@@H]5CO[C@H]6[C@@H]5OC[C@H]6O)[nH]c4cc3F)cc2)cc1 [Compound I-2-41] | 0.8 | 634 | – | –
29 | CC(C)(O)/C=C/c1ccc(-c2nc3cc(O[C@@H]4CO[C@H]5[C@@H]4OC[C@H]5O)[nH]c3cc2F)cc1 [Compound I-2-14] | 9.9 | 507 | – | –
30 | COC(=O)NC1CC=C(c2ccc(-c3nc4cc(O[C@@H]5CO[C@H](CO)C5)[nH]c4cc3F)cc2)CC1 (stereo partly shown) [Compound I-2-01] | – | 376 | – | –
31 | C[S@@](=O)(=Nc1ccc(-c2ccc(-c3nc4cc(O[C@@H]5CO[C@H]6[C@@H]5OC[C@H]6O)[nH]c4cc3F)cc2)cc1)c1ccccc1 [Compound I-1-19] | 5.8 | 477 | – | –
32 | O[C@@H]1CO[C@H]2[C@@H]1OC[C@H]2Oc1cc2nc(-c3ccc(-c4ccc(OC5CCOC5)cc4)cc3)c(F)cc2[nH]1 (stereo partly shown) [Compound I-2-69] | 13 | 557 | – | –
33 | CC(=O)NC1CCN(c2ccc(-c3nc4cc(O[C@@H]5CO[C@H]6[C@@H]5OC[C@H]6O)[nH]c4cc3F)cc2)CC1 [Compound I-1-31] | 9.5 | 539 | – | –
34 | COCCOC1CCN(c2ccc(-c3nc4cc(O[C@@H]5CO[C@H]6[C@@H]5OC[C@H]6O)[nH]c4cc3F)cc2)C1 (stereo partly shown) [Compound I-1-62] | 21 | 392 | – | –
35 | CS(=O)(=O)c1ccc(-c2ccc(-c3nc4cc(O[C@@H]5CO[C@H](CO)C5)[nH]c4cc3F)cc2)cc1 [Compound I-2-79] | 0.69 | 591 | – | –
